PMC11464777, “Approved drugs successfully repurposed against Leishmania based on machine learning predictions” (Frontiers in Cellular and Infection Microbiology, 2024)
In brackets after ≈: the same amount, converted by molar mass. Read-outs that look alike come from different tables or passages of the source.

Legend:
[1] = system: L. infantum LV50 intracellular amastigotes; assay: Anti-amastigote assay in THP-1-derived macrophages, L. infantum LV50; assay type: cell-based, Leishmania infantum; conditions: for IC50: Leishmania infantum, Macrophage, LV50, intramacrophage, 72 h
Protocol: (§1) THP-1-derived macrophages (5 × 10^4/well) were seeded in each 8-well Labtek slides (Thermo Scientific). Adherent macrophages were obtained as described above, then infected with stationary phase promastigotes of each strain at a ratio 10:1 (10 parasites/macrophage) in RPMI medium containing penicillin (100 U/mL) and streptomycin (100 μg/mL) with 10% fetal bovine serum (Gibco, Brazil) at 37°C in 5% CO2 for 24 h. […] Non-infected control cells were incubated in a supplemented RPMI medium containing 1% DMSO. After 72h of incubation, cells were fixed and stained using May-Grunwald-Giemsa staining with RAL 555 Kit (RAL DIAGNOSTICS, France), following the manufacturer’s instructions. The percentage of infected cells and the total number of internalized parasites per 100 macrophages were determined under immersion oil (magnification of 1000X) using light microscopy. The percentage of amastigotes viability was expressed as the percentage of total number of internalized parasites within treated cells relative to the total number of internalized parasites within control cells treated with 1% DMSO, and calculated as follows:
(§2) Relative amastigote viability (%) = [(number of amastigotes/100 treated cells)/(number of amastigotes/100 treated cells with1% DMSO)] * 100
(§3) The relative percentage of amastigote viability was evaluated to calculate half inhibitory concentrations (IC50). The mean IC50 values were determined by plotting the curves of the logarithm of compound concentrations versus the relative amastigote viability of three independent experiments performed in two technical replicates for each compound fitted into a nonlinear regression model, using GraphPad Prism version 8.0.1. Selectivity Index (SI) values were calculated as the ratio between cytotoxicity and activity against amastigotes and determined for each compound as follows: SI= CC50/IC50.

[2] = system: L. major Empa-12 promastigotes; assay: MTT-based promastigote viability assay, L. major Empa-12; assay type: cell-based; conditions: Leishmania major, Empa-12, 72 h, MTT
Excerpt: (§4) Three Tunisian laboratory strains already described ([Oualha et al., 2019]), originally isolated from distinct clinical manifestations were used in this study: (i) L. infantum LV50 MHOM/TN/94/LV50) strain originating from a bone marrow of a visceral leishmaniasis patient, (ii) L. infantum Drep-14 (MHOM/TN/96/Drep-14) strain isolated from a lesion of a sporadic cutaneous leishmaniasis patient and (iii) L. major Empa-12 (MHOM/TN/2012/Empa-12) strain isolated from a zoonotic cutaneous leishmaniasis patient. Stocks of these parasites obtained after passage through BALB/c mice were used as previously described ([Oualha et al., 2019]). Thawed cryopreserved parasites were cultured at 22°C in RPMI-1640/Glutamax medium (Gibco BRL, Germany) containing penicillin (100 U/mL) and streptomycin (100 μg/mL) supplemented with 10% heat-inactivated Fetal Bovine Serum (FBS) (Gibco BRL, Germany).
(§5) The effect of the selected compounds on the viability of Leishmania promastigotes was evaluated by a colorimetric MTT (3-(4,5-dimethylthiazol-2yl)-2,5-diphenyl tetrazolium bromide) assay. It consists in the reduction of tetrazolium salt to a […] crystal (blue formazan) by the succinate dehydrogenase activity of mitochondria in living cells, which can be quantified by spectrophotometry. Briefly, 90 μL of promastigotes (5 × 10^5 parasites/well) harvested from the stationary growth phase of each strain were added to a 96-well culture plate and incubated with 10 μL of a range of serial dilutions of the selected compounds in technical replicates (final concentration of 1% DMSO per well) ([Ioset et al., 2009]; [Harigua-Souiai et al., 2018]). […] After 72h of incubation at 22°C, 25 μl of MTT solution (5 mg/mL) was added to each well and incubated at 22°C for 4h. Then, 150 μl of DMSO was added to each well to dissolve the blue formazan and the optical density (OD) was measured at 570 nm with a microplate reader ([…], Labsystems). Promastigotes incubated in complete medium containing 1% DMSO were used as negative control. The standard anti-Leishmania drug, Amphotericin B was used as a positive control. All experiments were performed in two technical replicates and repeated three times in independent experiments. The mean percentage of promastigotes viability was calculated from the Optical Density at 570 nm as follows:
(§6) Promastigote viability (%)= [(ODcompound− ODblank)/(ODnegative control −ODblank)]*100
(§7) Results were expressed as the mean value of the percentage of promastigotes viability ± standard deviation (SD).

[3] = system: L. infantum Drep-14 promastigotes; assay: microbe, parasite or virus in culture; assay type: cell-based; conditions: Leishmania infantum, 72 h
Excerpt: as §4, §5, §6, §7

[4] = system: L. major and L. infantum amastigotes; assay: Anti-amastigote assay, stated across the three strains; assay type: cell-based, Leishmania infantum, Leishmania major; conditions: CC50/IC50 amastigotes
Protocol: as §1, §2, §3

[5] = system: Leishmania (Viannia) braziliensis; set-up: method as in Cazorla et al., 2004; conditions: hamsters infected with Leishmania (Viannia) braziliensis, versus Glucantime; ref Cazorla et al., 2004; cited from earlier work
[6] = system: L. infantum Drep-14 intracellular amastigotes; assay: Anti-amastigote assay in THP-1-derived macrophages, L. infantum Drep-14; assay type: cell-based, Leishmania infantum; conditions: Leishmania infantum, Macrophage, Drep-14, intramacrophage, 72 h
Protocol: as §1, §2, §3

[7] = system: L. major Empa-12 intracellular amastigotes; assay: Anti-amastigote assay in THP-1-derived macrophages, L. major Empa-12; assay type: cell-based, Leishmania major; conditions: for IC50: Leishmania major, Macrophage, Empa-12, intramacrophage, 72 h
Protocol: as §1, §2, §3

[8] = system: L. infantum (LV50 and Drep-14) and L. major (Empa-12) promastigotes; assay: MTT promastigote viability assay, stated across the three strains; assay type: cell-based, Leishmania infantum, Leishmania major; conditions: 72 h; for Effect on promastigote viability: three strains, at the tested concentrations
Excerpt: as §4, §5, §6, §7

[9] = system: THP-1-derived macrophages; assay: Cytotoxicity assay towards THP-1-derived macrophages (MTT); assay type: cell-based, human
Protocol: (§8) Louis, MO, USA). The PMA-treated THP-1 cells were maintained in this condition for 24 h, followed by a 24 h of rest period after the removal of PMA. […] The cytotoxicity towards THP-1-derived macrophages was assessed after 24, 48 and 72 hours of incubation by MTT assay as described above. […] The percentage of viable cells was calculated from the Optical Density at 570 nm as follows: […]

[10] = as above; assay type: cell-based, human; conditions: human, THP-1-derived macrophages (PMA-differentiated), 72 h of treatment, uninfected cells, MTT
Protocol: as §8

[11] = system: L. infantum LV50 promastigotes; assay: MTT-based promastigote viability assay, L. infantum LV50; assay type: cell-based; conditions: Leishmania infantum, LV50, 72 h, MTT
Excerpt: as §4, §5, §6, §7

[12] = system: L. infantum; set-up: method as in Cavalera et al., 2021; conditions: dogs with leishmaniasis and chronic kidney disease; ref Cavalera et al., 2021; cited from earlier work
[13] = system: L. infantum; set-up: method as in Gómez-Ochoa et al., 2009; conditions: 98 dogs naturally infected with L. infantum, 12-months follow-up; ref Gómez-Ochoa et al., 2009; cited from earlier work
[14] = system: multiple strains of L. donovani; set-up: method as in Pandharkar et al., 2014; conditions: ref Pandharkar et al., 2014, read-out: IC50 in vitro; cited from earlier work
[15] = read-out: Amastigotes IC50 (in brackets) (converted)
[16] = read-out: Promastigotes IC50 (in brackets) (converted)
[17] = read-out: THP-1-derived macrophages CC50
[18] = read-out: THP-1-derived macrophages CC50 (in brackets) (converted)

CCCCOc1cc(C(=O)NCCN(CC)CC)c2ccccc2n1 [Dibucaine]
Selectivity Index (SI) ([1]; CC50 THP-1 / IC50 amastigotes LV50, 72 h): 31.97
IC50 ([1]; read-out: Amastigotes IC50): 0.71 ± 0.09 µg/mL
IC50 [1, 15]: 1870 nM
IC50 ([2]; read-out: Promastigotes IC50): 1.04 ± 0.09 µg/mL
IC50 [2, 16]: 2740 nM
IC50 ([3]; read-out: Promastigotes IC50): 1.05 ± 0.06 µg/mL
IC50 ([3]; read-out: Promastigotes IC50 (in brackets)): 2760 nM
Selectivity index (SI), span over strains [4]: > 25
Efficacy of intralesional treatment in hamsters [5]: comparable to the standard dosages of Glucantime
IC50 ([6]; read-out: Amastigotes IC50): 0.9 ± 0.03 µg/mL
IC50 [6, 15]: 2370 nM
Selectivity Index (SI) ([7]; CC50 THP-1 / IC50 amastigotes Empa-12, 72 h): 27.35
IC50 ([7]; read-out: Amastigotes IC50): 0.83 ± 0.05 µg/mL
IC50 [7, 15]: 2190 nM
IC50 ([8]; Leishmania infantum, LV50, Drep-14, Empa-12, MTT, read-out: Promastigotes IC50, span over the three strains): 0.58 to 1.05 µg/mL (≈ 1.69 to 3.06 µM)
Effect on promastigote viability [8]: dose-dependent decrease of parasite viability
Concentration at which cytotoxic effects start ([9]; 24 h of incubation): 30000 ng/mL
Concentration at which cytotoxic effects start ([9]; 48 h of incubation): 30000 ng/mL
Concentration at which cytotoxic effects start ([9]; 72 h of incubation): 15000 ng/mL
CC50 at 72 h [10, 17]: 22.7 ± 1.08 µg/mL
CC50 at 72 h [10, 18]: 59700 nM
IC50 ([11]; read-out: Promastigotes IC50): 0.58 ± 0.02 µg/mL
IC50 [11, 16]: 1530 nM

O=c1[nH]c2ccccc2n1CCCN1CCC(n2c(=O)[nH]c3cc(Cl)ccc32)CC1 [Domperidone]
Serum markers in dogs [12]: improve serum creatinine and to reduce anti-L. infantum antibody titers, globulins, gamma globulins, and C-reactive protein (CRP)
Effect on promastigote viability [8]: dose-dependent decrease of parasite viability
Clinical outcome in dogs [13]: effectively reduced clinical symptoms and antibody levels
Concentration at which cytotoxic effects start ([9]; 24 h of incubation): 25000 ng/mL
Concentration at which cytotoxic effects start ([9]; 48 h of incubation): 25000 ng/mL
Concentration at which cytotoxic effects start ([9]; 72 h of incubation): 25000 ng/mL
CC50 at 72 h [10, 17]: 26.5 ± 2.6 µg/mL
CC50 at 72 h [10, 18]: 62400 nM

OC(Cn1cncn1)(Cn1cncn1)c1ccc(F)cc1F [Fluconazole]
IC50 [14]: 140000 ± 50000 nM
